Experimental findings from US20230183239A1, “ECTONUCLEOTIDE PYROPHOSPHATASE-PHOSPHODIESTERASE 1 (ENPP-1) INHIBITORS AND USES THEREOF” (AbbVie Inc., priority 2017, published 2023) are described below.

Structures are written as SMILES. Where only a bound is given, the exact number is not on record here.

Assay type in all cases: biochemical
In assay [1] the target is T1, ENPP1 (Homo sapiens, UniProt P22413).
T1 sequence (P22413 1-925): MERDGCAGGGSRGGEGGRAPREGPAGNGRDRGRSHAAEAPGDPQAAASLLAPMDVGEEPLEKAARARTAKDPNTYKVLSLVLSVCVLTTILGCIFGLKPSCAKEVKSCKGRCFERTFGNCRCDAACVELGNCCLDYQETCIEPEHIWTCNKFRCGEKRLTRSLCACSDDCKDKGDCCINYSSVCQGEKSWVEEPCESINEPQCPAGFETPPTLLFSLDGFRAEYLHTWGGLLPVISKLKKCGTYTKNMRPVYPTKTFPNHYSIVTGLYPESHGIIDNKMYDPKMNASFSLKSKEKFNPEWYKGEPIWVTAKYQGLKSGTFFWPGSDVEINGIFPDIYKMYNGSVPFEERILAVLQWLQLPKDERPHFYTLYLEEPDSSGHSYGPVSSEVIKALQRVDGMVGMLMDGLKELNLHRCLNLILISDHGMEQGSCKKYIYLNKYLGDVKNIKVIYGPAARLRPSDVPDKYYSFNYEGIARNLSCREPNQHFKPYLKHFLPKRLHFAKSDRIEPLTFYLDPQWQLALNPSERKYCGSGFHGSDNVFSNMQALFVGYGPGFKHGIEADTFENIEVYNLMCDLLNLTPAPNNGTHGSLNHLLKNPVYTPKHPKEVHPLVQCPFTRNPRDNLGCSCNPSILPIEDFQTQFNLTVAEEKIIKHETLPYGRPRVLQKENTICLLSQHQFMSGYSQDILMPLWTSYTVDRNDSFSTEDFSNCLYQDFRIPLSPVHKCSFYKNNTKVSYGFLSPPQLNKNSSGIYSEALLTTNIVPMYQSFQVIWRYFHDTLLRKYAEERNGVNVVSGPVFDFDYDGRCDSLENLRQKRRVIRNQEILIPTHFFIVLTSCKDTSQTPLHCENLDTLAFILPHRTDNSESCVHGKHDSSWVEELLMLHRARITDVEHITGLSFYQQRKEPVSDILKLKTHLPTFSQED
In words: Indirect quantitation of 2',3'-cGAMP hydrolysis (AMP-Glo Assay kit). As to conditions: cGAMP substrate; Ki from IC50 by Cheng-Prusoff; read-out: ENPP1 Inhibition -cGAMP: Ki.

The target in assay [2] is T1, ENPP1. Kind of assay: ENPP1 enzyme assay with AMP-pNP substrate (hydrolysis of ATP analog). As to conditions: AMP-pNP substrate (ATP analog); Ki from IC50 by Cheng-Prusoff; read-out: ENPP1 Inhibition _AMP-pNP: Ki. How it is done: The ENPP1 assay with AMP-pNP substrate is conducted in a buffer containing 50 mM Tris-HCl (pH 8.5)/ 250 mM NaCl/0.5 mM CaCl2/1 µM ZnCl2/0.1% DMSO. Inhibitors are added at final concentrations ranging between 10 µM and 30 pM depending on the compound. Duplicate wells are run at each inhibitor concentration. The final assay volume is 40 µL and human recombinant ENPP1 is present at 60 ng/well. The assay is initiated by the addition of substrate (300 µM AMP-pNP final concentration), and incubated for 20 minutes at 37° C. […] Each assay plate also includes wells with no enzyme added (MIN OD) and wells with no inhibitor added (MAX OD). The percent inhibition of ENPP1 for each sample is then calculated as: […]
IC50 values of compounds were calculated by entering the percent inhibition values into a sigmoidal variable slope nonlinear regression model in GraphPad Prism® software.

In assay [3] the target is T1, ENPP1. Kind of assay: Substrate selectivity ratio, inhibition of cGAMP hydrolysis versus ATP hydrolysis. As to conditions: ratio Ki AMP-pNP / Ki cGAMP. How it is done:
The selectivity ratios for inhibition of cGAMP hydrolysis versus ATP hydrolysis were then calculated as follows: […]

Broadly, the Ki is a measure of affinity in units of concentration, obtained from inhibition or displacement.

For `COc1cc2nccc(N3CCc4cc(NS(N)(=O)=O)ccc43)c2cc1F` [Example 72, N-(1-(6-fluoro-7-methoxyquinolin-4-yl)indolin-5-yl)sulfamide], the Ki on ENPP1 [1] and on ENPP1 [2] was under 100 nM in each case. On ENPP1 [3], the “Substrate Selectivity: Ki_AMP-pNP/Ki_cGAMP” value (shortened to “Substrate Selectivity”) turned out to be 11.9.

For `COc1ccc2c(Oc3ccc(NS(N)(=O)=O)cc3)ccnc2n1` [Example 73, N-(4-((7-methoxy-1,8-naphthyridin-4-yl)oxy)phenyl)sulfamide], the Ki at ENPP1 [1] and at ENPP1 [2] was under 100 nM each time. Also, at ENPP1 [3], the “Substrate Selectivity” value is reported as 24.2.

Regarding `COc1cc2nccc(Oc3ccc(S(N)(=O)=O)cc3)c2cc1F` [Example 74, 4-((6-fluoro-7-methoxyquinolin-4-yl)oxy)benzenesulfonamide], the Ki at ENPP1 [1] and on ENPP1 [2] was under 100 nM in each case. Also, the “Substrate Selectivity” value on ENPP1 [3] is 22.5.

Turning to `COc1ccc2c(Oc3ccc(NS(N)(=O)=O)c(Cl)c3)ccnc2c1` [Example 75, N-(2-chloro-4-((7-methoxyquinolin-4-yl)oxy)phenyl)sulfamide], the Ki at ENPP1 [1] was under 100 nM; on ENPP1 [2], 100 to 1000 nM. Also, the “Substrate Selectivity” value on ENPP1 [3] is listed as 41.3.

`COc1cc2nccc(Oc3ccc(NS(=O)(=O)c4ccccc4)cc3)c2cc1OC` [Example 86, N-(4-((6,7-dimethoxyquinolin-4-yl)oxy)phenyl)benzenesulfonamide]: the Ki is under 100 nM at ENPP1 [1] and 100 to 1000 nM at ENPP1 [2]. Also, the “Substrate Selectivity” value at ENPP1 [3] is given as over 43.2.

As for `COc1cc2ncnc(Nc3ccc(NS(N)(=O)=O)cc3)c2cc1OC` [Example 114, N-(4-((6,7-dimethoxyquinazolin-4-yl)amino)phenyl)sulfamide], the Ki was under 100 nM on ENPP1 [1] and over 1000 nM on ENPP1 [2]. Besides, the “Substrate Selectivity” value on ENPP1 [3] was over 42.7.

Regarding `COc1cc2ncn(-c3ccc(CNS(N)(=O)=O)cc3)c2cc1OC` [Example 120, N-(4-(5,6-dimethoxy-1H-benzo[d]imidazol-1-yl)benzyl)sulfamide], the Ki is under 100 nM at ENPP1 [1] and over 1000 nM on ENPP1 [2]. Further, the “Substrate Selectivity” value on ENPP1 [3] was found to be 54.5.

Take `COc1cc2ncnc(-c3ccc4c(c3)CCN(S(N)(=O)=O)C4)c2cc1OC` [Example 121, 6-(6,7-dimethoxyquinazolin-4-yl)-3,4-dihydroisoquinoline-2(1H)-sulfonamide]: the figures for the Ki on ENPP1 [1] and on ENPP1 [2] were under 100 nM and over 1000 nM, respectively. Further, the “Substrate Selectivity” value at ENPP1 [3] is over 61.5.

With `COc1cc2ncnc(-c3ccc4c(c3)CC(NS(N)(=O)=O)C4)c2cc1OC` (stereo not drawn) [Example 122, N-(5-(6,7-dimethoxyquinazolin-4-yl)-2,3-dihydro-1H-inden-2-yl)sulfamide], the results for the inhibitory constant (Ki) on ENPP1 [1] and on ENPP1 [2] were under 100 nM and 100 to 1000 nM, respectively. In addition, the “Substrate Selectivity” value at ENPP1 [3] is on record as 21.9.

Regarding `COc1cc2nccc(Oc3ccc(NS(N)(=O)=O)cc3)c2cc1OC` [Example 125, N-(4-((6,7-dimethoxyquinolin-4-yl)oxy)phenyl)sulfamide], the Ki at ENPP1 [1] is under 100 nM; at ENPP1 [2], over 1000 nM. Further, the “Substrate Selectivity” value on ENPP1 [3] is on record as over 562.

As for `COc1cc2ccc(=O)n(Cc3ccc(NS(N)(=O)=O)cc3)c2cc1OC` [Example 126, N-(4-((6,7-dimethoxy-2-oxoquinolin-1(2H)-yl)methyl)phenyl) sulfamide], the Ki at ENPP1 [1] is 100 to 1000 nM; on ENPP1 [2], over 1000 nM. Also, the “Substrate Selectivity” value at ENPP1 [3] is over 134.

As to `COc1cc2nccc(Nc3ccc(NS(N)(=O)=O)cc3)c2cc1OC` [Example 134, N-(4-((6,7-dimethoxyquinolin-4-yl)amino)phenyl)sulfamide], the Ki was under 100 nM at ENPP1 [1] and over 1000 nM at ENPP1 [2]. Also, on ENPP1 [3], the “Substrate Selectivity” value is over 69.1.

For the compound `COc1cc2ncc(C#N)c(-c3ccc(S(N)(=O)=O)cc3)c2cc1OC` [Example 136, 4-(3-cyano-6,7-dimethoxyquinolin-4-yl)benzenesulfonamide], the Ki on ENPP1 [1] was under 100 nM; on ENPP1 [2] it was over 1000 nM. For the same compound, the “Substrate Selectivity” value on ENPP1 [3] was over 461.

For `COc1cc2ncnc(N3CCc4cc(NS(N)(=O)=O)ccc4C3)c2cc1OC` [Example 137, N-(2-(6,7-dimethoxyquinazolin-4-yl)-1,2,3,4-tetrahydroisoquinolin-6-yl)sulfamide], the Ki at ENPP1 [1] was under 100 nM; on ENPP1 [2], 100 to 1000 nM. Also, the “Substrate Selectivity” value on ENPP1 [3] came out at 22.4.

`COc1cc2ncnc(NC(C)c3ccc(NS(N)(=O)=O)cc3)c2cc1OC` (stereo not drawn) [Example 140, N-(4-(1-((6,7-dimethoxyquinazolin-4-yl)amino)ethyl)phenyl) sulfamide]: the values for the Ki on ENPP1 [1] and on ENPP1 [2] were under 100 nM and 100 to 1000 nM, respectively. In addition, the “Substrate Selectivity” value at ENPP1 [3] came to 25.1.

Regarding `Cn1c(=O)[nH]c2ncnc(N3CCC(CCNS(N)(=O)=O)CC3)c21` [Example 141, N-(2-(1-(7-methyl-8-oxo-8,9-dihydro-7H-purin-6-yl)piperidin-4-yl)ethyl)sulfamide], the Ki at ENPP1 [1] is under 100 nM; at ENPP1 [2], over 1000 nM. Further, the “Substrate Selectivity” value on ENPP1 [3] is given as over 929.

Take `COc1cc2ncnc(-c3ccc(CNS(N)(=O)=O)cc3)c2cc1OC` [Example 144, N-(4-(6,7-dimethoxyquinazolin-4-yl)benzyl)sulfamide]: the Ki is under 100 nM at ENPP1 [1] and 100 to 1000 nM at ENPP1 [2]. Moreover, the “Substrate Selectivity” value on ENPP1 [3] is on record as 189.2.

Regarding `COc1cc2ncnc(-c3ccc(CCNS(N)(=O)=O)cc3)c2cc1OC` [Example 145, N-(4-(6,7-dimethoxyquinazolin-4-yl)phenethyl)sulfamide], the Ki was under 100 nM at ENPP1 [1] and 100 to 1000 nM on ENPP1 [2]. Moreover, the “Substrate Selectivity” value on ENPP1 [3] turned out to be 20.7.

Take `COc1cc2nccc(N3CCC(CCNS(=O)(=O)N4CCOCC4)CC3)c2cc1OC` [Example 147, N-(2-(1-(6,7-dimethoxyquinolin-4-yl)piperidin-4-yl)ethyl)morpholine-4-sulfonamide]: the Ki at ENPP1 [1] was 100 to 1000 nM; at ENPP1 [2], over 1000 nM. Besides, the “Substrate Selectivity” value on ENPP1 [3] is reported as over 117.

Consider `COc1cc2nccc(-c3ccc4c(c3)CN(S(N)(=O)=O)CC4)c2cc1OC` [Example 148, 7-(6,7-dimethoxyquinolin-4-yl)-3,4-dihydroisoquinoline-2(1H)-sulfonamide], for which the Ki at ENPP1 [1] and at ENPP1 [2] was under 100 nM in each case. In addition, the “Substrate Selectivity” value on ENPP1 [3] is listed as 10.1.

`COc1cc2ncc(C#N)c(-c3ccc4c(c3)CN(S(N)(=O)=O)CC4)c2cc1OC` [Example 149, 7-(3-cyano-6,7-dimethoxyquinolin-4-yl)-3,4-dihydroisoquinoline-2(1H)-sulfonamide]: the Ki on ENPP1 [1] and on ENPP1 [2] was under 100 nM throughout. Besides, the “Substrate Selectivity” value at ENPP1 [3] worked out at 12.2.

With `NS(=O)(=O)N1CCc2ccc(-c3ncnc4ccccc34)cc2C1` [Example 150, 7-(quinazolin-4-yl)-3,4-dihydroisoquinoline-2(1H)-sulfonamide], the values for the Ki at ENPP1 [1] and at ENPP1 [2] were 100 to 1000 nM and over 1000 nM, respectively. Further, at ENPP1 [3], the “Substrate Selectivity” value is on record as over 158.

On to `COc1cc2nccc(Nc3ccc(NS(=O)(=O)c4ccccc4)cc3)c2cc1OC` [Example 153, N-(4-((6,7-dimethoxyquinolin-4-yl)amino)phenyl)benzenesulfonamide], for which the values for the Ki on ENPP1 [1] and on ENPP1 [2] were under 100 nM and over 1000 nM, respectively. The “Substrate Selectivity” value on ENPP1 [3] is given as 62.9.

Turning to `COc1cc2ncnc(NCCc3ccc(NS(N)(=O)=O)cc3)c2cc1OC` [Example 156, N-(4-(2-((6,7-dimethoxyquinazolin-4-yl)amino)ethyl)phenyl) sulfamide], the Ki at ENPP1 [1] is under 100 nM; at ENPP1 [2], 100 to 1000 nM. The “Substrate Selectivity” value at ENPP1 [3] came out at 23.3.
